92 molecules from a melting point compilation (Tetko et al.; mined from patent text by program, amines drawn as free bases though some values may be those of a salt) can be followed below.

For orientation: melting point means the temperature, or range, at which the solid turns liquid.

Regarding `CCOC(=O)C1=C(C)NC(C)=C(C(=O)OCC)C1c1ccccc1/C=C/C#N`, the melting point was 172 to 173 °C.

For `CC(C)(C)OC(=O)N[C@@H](CC1CCCCC1)[C@@H]1C[C@@H](C(C)(C)O)C(=O)O1`, the melting point lay within 123 to 125 °C.

Turning to `CC(C(=O)O)c1ccc(-c2ccccc2[N+](=O)[O-])cc1` (configuration not stated), the melting point fell in the range of 116 to 119 °C.

The molecule `Nc1nccn2nc(SCc3ccccc3)nc12` returned a melting point of 144 to 145 °C.

Molecule `C1=CC2OC1c1cc3c(cc12)OCO3` had a melting point of 111 to 112 °C.

Take `C[C@H](CO)[C@H]1CC[C@H]2[C@@H]3C=CC4=CC(=O)C=C[C@]4(C)[C@H]3CC[C@]12C`: the melting point was 156 to 157 °C.

On to `COc1cc(C(O)CS(C)(=O)=O)cc(OC)c1-n1cccc1` (configuration not stated), for which the melting point was found to be 192 °C.

As to `NC(=O)c1cc(-c2ncc(C(F)(F)F)cc2Cl)ccc1Cl`, the melting point fell in the range of 167 to 168 °C.

Molecule `Cc1ccccc1C1CCN(C2CCCCC2O)CC1` (single isomer, unassigned; (-)) yielded a melting point of 116 to 118 °C.

With `CCOc1cc2ncc3c(N)nc(-c4cccnc4)cc3c2cc1OCC`, the melting point was 241 to 245 °C.

`COC(=O)c1ccc(I)c2c(=O)c3ccccc3[nH]c12` gave a melting point of 189 to 191 °C.

`CSCOc1ccc2c(c1)CCC1C2CCC2(C)C(=O)CCC12` (configuration not stated) displayed a melting point of 65 °C.

In turn, `Cc1cc2c([N+](=O)[O-])cccc2c(Cl)n1` returned a melting point of 112 °C.

Regarding `Cc1ccc(S(=O)(=O)N2CCN([C@H](C)[C@](O)(Cn3cncn3)c3ccc(F)cc3F)CC2)cc1`, the melting point lay in the range of 81 to 83 °C.

In turn, `NS(=O)(=O)c1ccc(-c2[nH]c3ccc(Cl)cc3c2-c2ccc(Cl)cc2)cc1` had a melting point of 245 to 247 °C.

On to `CCCC1=C(C(=O)OCC)C(c2ccccc2Cl)c2cn(C(=O)Oc3ccccc3)nc2N1` (configuration not stated), for which the melting point lay within 156 to 157 °C.

The molecule `CCCCNc1c(C(=O)OCC)cnc2c1cnn2CC` returned a melting point of 82 to 83 °C.

For the molecule `Cc1ccc(-c2c(NS(=O)(=O)c3ccc(C(C)(C)COC4CCCCO4)cc3)ncnc2OCCOc2ncc(Br)cn2)cc1` (configuration not stated), the melting point lay within 138 to 139 °C.

`COc1ccc2nnc(-c3ncc([N+](=O)[O-])n3C)n2n1` had a melting point of 193 to 198 °C.

Take `FC(F)c1nc2ccccc2n1-c1nc(Nc2ccncn2)nc(N2CCOCC2)n1`: the melting point was 233 to 235 °C.

The molecule `Brc1ccc(N=C(c2ccccc2)c2ccccc2)cc1` returned a melting point of 82 to 83 °C.

Molecule `O=C1OC(O)(c2ccccc2)C2(Cl)CCCCC12` (configuration not stated) returned a melting point of 89 to 92 °C.

`CC(C)n1cc(-c2ccc(C(O)c3ccccc3)cc2)c2c(N)ncnc21` (configuration not stated): the melting point was 279 to 281 °C.

Molecule `CC1(C)CNc2nc(-c3ccncc3)c(F)c(=O)n2C1` registered a melting point of 190 to 192 °C.

Consider `COC(=O)[C@@H]1[C@@H](O[Si](C)(C)C(C)(C)C)CCN1C(=O)Nc1ccc(C#N)c(Cl)c1C`, for which the melting point lay in the range of 123 to 125 °C.

For the molecule `CN1C(=O)C(=CN2CCOCC2)N=C(c2ccccc2Cl)c2cc(F)ccc21`, the melting point lay in the range of 110 to 115 °C.

Molecule `CON=C(C(=O)OC(C)C)c1ccccc1CBr` registered a melting point of 76 to 77 °C.

With `NC(=Nc1ccc(N2CCN(C(=O)NCCCCC3CCSS3)CC2)cc1)c1cccs1` (configuration not stated), the melting point lay within 201 to 202 °C.

In turn, `N#CC(C=N)CC(=O)c1ccccc1F` (configuration not stated) displayed a melting point of 120 to 122 °C.

Turning to `COc1ccc(CSc2nnc(-c3ccnc(N)c3)o2)cc1F`, the melting point was in the range of 166 to 167 °C.

Regarding `COc1ccc2c(c1)Sc1c(cc(OC)c(OC(C)=O)c1Br)N2C`, the melting point was 189 to 190 °C.

As to `CCC(=O)c1cc(C(=O)O)c2cc(Cc3ccc(F)cc3)cnc2c1O`, the melting point lay within 235 to 237 °C.

Take `Cc1c(OCC(F)(F)F)ccnc1CS(=O)c1nc2ccccc2n1S(=O)(=O)c1ccc(OCC(=O)Nc2ccccn2)cc1` (configuration not stated): the melting point was 78 to 81 °C.

In the case of `Cc1nc2[nH]c(=O)ccc2c(C)c1C`, the melting point fell in the range of 170 to 175 °C.

The molecule `O=C(O)c1c2n(c3cc(N4CCOCC4)c(F)cc3c1=O)CS2` had a melting point of 244 to 248 °C.

On to `COc1nc2cc(F)ccc2nc1Cl`, for which the melting point was 93 to 95 °C.

`N#Cc1cc(C2CCCCC2)c(C(=O)O)cn1` yielded a melting point of 225 to 230 °C.

As for `CNC(=O)c1cccc(C(=O)OC)c1`, the melting point lay in the range of 128 to 130 °C.

As for `CCN(c1nc(C)cc(C)n1)c1ccc(CC=NOC)cc1SC`, the melting point was 106 to 108 °C.

The molecule `Cc1cccc(CC(Nc2ccccc2)C(=O)NC(C#N)COCc2cccc(C(=O)O)c2)c1` (configuration not stated) showed a melting point of 135 to 137 °C.

With `C#CCCc1cc2cc(C(=O)OC)ccc2o1`, the melting point was 57 to 58 °C.

The molecule `COC(=O)C(CCCCCCCCCCCCC(C(=O)O)C1CC1)C1CC1` (configuration not stated) yielded a melting point of 59.4 to 60.5 °C.

As for `CC1=C(C(=O)c2ccc(C#N)cc2)C(=O)C2C=CC=CC2C1=O` (configuration not stated), the melting point was in the range of 185 to 186 °C.

The molecule `N#Cc1ccc(C(F)(F)F)c(C(F)(F)F)c1` gave a melting point of 71 to 72 °C.

On to `CC(=O)N1c2ccc(Cl)cc2CC1C#N` (configuration not stated), for which the melting point was 140 to 142 °C.

For `CC[Si](CC)(CC)OC1C(=O)NC1c1cccs1` (configuration not stated), the melting point was 70 to 71 °C.

The molecule `C=CCON=C(CC)C1=C(OCc2ccccc2)CC(C)(C)CC1=O` came in with a melting point of 60.5 to 61.5 °C.

The molecule `CCOCC(=O)Nc1ccc(C2=NNC(=O)CC2C)cc1` (configuration not stated) had a melting point of 195 to 197 °C.

Consider `CSc1nccc(-c2ccccc2)n1`, for which the melting point lay in the range of 87 to 89 °C.

`O[C@@H]1CNC[C@H]1Oc1ccccc1` (relative stereo) came in with a melting point of 120 to 122 °C.

As for `c1ccc(-c2ncc(-c3cnc(-c4ccncc4)[nH]3)cn2)cc1`, the melting point worked out at 300 °C.

The molecule `CCN1C(=O)C2=C(c3ccccc3)N(CC)C(=O)C2=C1c1ccccc1` yielded a melting point of 229 to 230 °C.

`Oc1ccc2cc(OCCN3CCC(Cc4ccccc4)CC3)ccc2c1` showed a melting point of 139 to 141 °C.

As to `CC(=O)NC1CC(=O)CC(=O)C1`, the melting point was in the range of 181 to 183 °C.

Consider `C/C(=C\c1ccc(OC(C)C)cc1Oc1ncc(C(F)(F)F)cc1Cl)C(=O)NS(=O)(=O)NC1CCC(C)CC1` (configuration not stated), for which the melting point stood at 177 °C.

Molecule `COC1O[C@H](CC#N)[C@H](OCc2ccccc2)[C@H]1O` (some centres not stated) had a melting point of 59 to 60 °C.

In turn, `N#CC=CNc1ccnc(-c2ccncc2)n1` gave a melting point of 253 to 255 °C.

The molecule `N#CC(c1ccccn1)c1cccs1` (configuration not stated) had a melting point of 48 to 50 °C.

In turn, `CN(C(=O)CN(C(=O)CNC(=O)OC(C)(C)C)c1ccccc1O)c1ccccc1` displayed a melting point of 185 to 188 °C.

Turning to `CC(=O)c1ccc2c(c1)C(=C1CCN(C)CC1)c1ccccc1S2`, the melting point fell in the range of 125 to 127 °C.

Molecule `O=C(Nc1cccnn1)N1CCN(c2cc(-c3ccc(F)cc3)ncn2)CC1` displayed a melting point of 254 to 255 °C.

On to `COC(=O)c1cc(OCc2nc(-c3ccccc3)sc2C)no1`, for which the melting point lay within 89 to 90 °C.

As for `CCOC(=O)c1cc2ccccc2n1-c1ccc(OC)c(OC)c1`, the melting point lay in the range of 126 to 128 °C.

Turning to `CC(C)(C)Nc1nc(C(F)(F)F)c(C(=O)Cl)o1`, the melting point is 52 to 60 °C.

Take `Cc1ccc(CC2CCN(C(=O)C(=O)Nc3ccc4[nH]c(=O)sc4c3)CC2)cc1`: the melting point is 221 to 222 °C.

On to `COC(=O)c1cc(-c2cccc(Cl)c2)sc1N`, for which the melting point fell in the range of 85 to 87 °C.

In turn, `O=Cc1ccc(C(O)c2cccnc2)cc1` (configuration not stated) yielded a melting point of 104 to 105 °C.

Regarding `Cc1ncccc1C(=O)NCC1CCN(C[C@H]2COc3ccc(Cl)cc3O2)CC1`, the melting point lay within 133 to 136 °C.

Turning to `CN(C(=O)C1(C(=O)O)CC1)c1ccc(Cl)cc1`, the melting point lay in the range of 156 to 158 °C.

Take `COc1ccc2c(c1)Cc1cc(F)ccc1C(=O)C2`: the melting point fell in the range of 129 to 130 °C.

`CCCc1c(O)n2c3c(=O)n(C)c(=O)n(C)c3nc2n(Cc2ccccc2)c1=O`: the melting point worked out at 217 °C.

With `COCCNc1nc(N)nc(-c2cc(Cl)ccc2Cl)n1`, the melting point is 195 to 197 °C.

In turn, `CC(C)(O)CC(=O)N[C@H]1CC[C@H](CCN2CCC(c3cccc4c3CCO4)CC2)CC1` showed a melting point of 168 °C.

For `CCCNC(=S)NS(=O)(=O)c1c(NC(=O)OCC)sc(C)c1C#N`, the melting point fell in the range of 167 to 168 °C.

With `COc1ccc(-c2c(C(=O)O)c(=O)n(Cc3ccccc3OC)c3c2oc2cc(N)ccc23)cc1`, the melting point is 245 °C.

The molecule `CN(C)S(=O)(=O)c1cc(-c2csc(=Nc3ccc(O)cc3)n2C)ccc1Cl` had a melting point of 188 to 190 °C.

`O=C(CC12CC3CC(CC(C3)C1)C2)Nc1ccccc1Cl` gave a melting point of 122 to 124 °C.

Molecule `O=C(CN1CC=C(c2c[nH]c3cc(Cl)ccc23)CC1)Nc1ccccn1` gave a melting point of 202 to 204 °C.

Regarding `FC(F)(F)Oc1ccc(C2=CCC3(CC2)OCCO3)cc1`, the melting point fell in the range of 53.9 to 55.5 °C.

`O=C(O)Cc1cccc(Sc2ccccc2Cl)c1O` came in with a melting point of 91 to 93 °C.

The molecule `CON=Cc1nc(C)n2c1CN=C(c1ccccc1)c1cc(Cl)ccc1-2` showed a melting point of 193 to 195 °C.

The molecule `Cc1ccc(Sc2cc(C#N)ccc2C#N)cc1` showed a melting point of 155 °C.

In turn, `CCOC(=O)c1cnc(Cl)c(N)c1NC` displayed a melting point of 50 to 52 °C.

`CC(C)N(C1CCCCC1)S(=O)(=O)N[C@@H](Cc1ccc(Nc2nccc3cnccc23)cc1)C(=O)O` came in with a melting point of 162 °C.

Turning to `CCSc1nc(-c2ccccc2)c(-c2ccccc2)s1`, the melting point lay in the range of 73 to 74 °C.

`N#Cc1c(N2CCN(C(=O)c3cccs3)CC2)c2cccnc2n(CC(=O)c2ccccc2)c1=O`: the melting point was 269 °C.

As for `CN(C)CCc1ccc(O)c2[nH]ncc12`, the melting point was 223 to 227 °C.

Regarding `CC1Cc2cc3c(cc2C(c2ccc([N+](=O)[O-])cc2)=NN1c1nncs1)OCO3` (configuration not stated), the melting point was 212 to 213 °C.

For `CCCCOc1ccc(S(=O)(=O)C2(C(=O)O)CCN(CCOc3ccccc3)CC2)cc1`, the melting point is 204 °C.

`COc1ccc(NC(=O)Nc2ccc(Cl)c(Cl)c2)cc1NS(=O)(=O)c1cccs1` came in with a melting point of 205 to 208 °C.

`COc1cccc(C(O)CCN2CC=C(c3ccc(Cl)cc3)CC2)c1` (configuration not stated) had a melting point of 100 to 102 °C.

`CCCc1nc2c(c(C)c(C)n3nnnc23)n1CC(C)(C)NC(=O)NC1CCCCC1` registered a melting point of 196 to 198 °C.
